Values of other authors in US20230190604A1, “DERMATOLOGIC/PERSONAL CARE CONCENTRATES” (Vantage Specialty Ingredients, Inc., priority 2021, published 2023).

What was measured:
[1] = water as solvent
[2] = ethanol as solvent, "normal temperatures"

maximum concentration of azelaic acid dissolved in water [1]: about 0.24 % by weight (w/w) | stability of azelaic acid in ethanol [2]: unstable
Structure (SMILES): O=C(O)CCCCCCCC(=O)O [azelaic acid]
